Tests used:
[1] = system: P. falciparum 3D7 trophozoites; test: microbe, parasite or virus in culture; type: cell-based, Plasmodium falciparum
Method: P. falciparum strains 3D7, Dd2, NITD609-R^Dd2 clone #2, Dd2^attB, and Dd2^attB CAM I398F/P990R were cultured under shaking conditions as described elsewhere ([Allen and Kirk, 2010]). Cultures were synchronized 24 hr before experimentation using 5% w/v sorbitol ([Lambros and Vanderberg, 1979]). All experiments were conducted on mature trophozoite-stage parasites (36–40 hr postinvasion) functionally isolated from their host erythrocytes by permeabilization of the erythrocyte and parasitophorous vacuole membranes by brief exposure to saponin (0.05% w/v) as described previously ([Spillman et al., 2008]).
The [Na^+]i of saponin-isolated parasites was measured at 37°C using the Na^+-sensitive dye SBFI (Molecular Probes, Invitrogen) in conjunction with a PerkinElmer LS 50B Fluorescence Spectrometer fitted with a Dual Excitation Fast Filter. Saponin-isolated parasites were loaded with SBFI by suspension (at 1.40–1.80 × 10^8 cells/mL) for 20 min at 37°C in bicarbonate-free RPMI1640 supplemented with 20 mM D-glucose, 0.2 mM hypoxanthine, 25 mM HEPES, and 25 mg/L gentamycin sulfate (pH 7.10), to which SBFI-acetoxymethyl ester (5.5 μM) and Pluronic F-127 (0.01% w/v) were added. The dye-loaded cells were washed twice (12,000 × g, 0.5 min) in bicarbonate-free RPMI then incubated for a further 20 min at 37°C to allow for complete de-esterification of the dye before being resuspended at a final cell concentration of 1.5–2.5 × 10^7 cells/mL in standard saline. The dye-loaded cells were excited at 340 nm and 380 nm with fluorescence recorded at 490 nm. Calibration of the relationship between the 340/380 nm fluorescence ratio and [Na^+]i (see Figures S1A–S1C) was carried out as described previously ([Diarra et al., 2001]; [Harootunian et al., 1989]).
The initial Na^+ influx rate (at t = 0) is a × Δ[Na^+]i^max.
(§1) Dose-response curves were obtained using the expression y = y^min + y^max/(1 + [C/IC50]^b), where y is the parameter being measured (parasite proliferation, Na^+ influx, or ATPase activity), y^min is the minimum value of y, y^max is the maximum value of y, C is the concentration of the moiety that was varied in the experiment, IC50 is the concentration at which y was reduced to 50% of y^max, and b is a fitted constant.

[2] = system: P. falciparum trophozoites; test: Cytosolic pH (pHi) in BCECF-loaded saponin-isolated parasites; type: cell-based, Plasmodium falciparum; details: 50 nM
Method: pHi of saponin-isolated parasites was measured using the pH-sensitive indicator BCECF (Molecular Probes, Invitrogen) as described previously ([Saliba and Kirk, 1999]). […] Critical experiments performed using SBFI-loaded parasites were repeated with parasites loaded with BCECF.

[3] = molecular target: T1, membrane-associated ATPase activity in P. falciparum infected human erythrocytes (3D7) (Plasmodium falciparum, UniProt A0A143ZZK9); test: Membrane-associated ATPase activity (Pi production), infected erythrocyte membranes; type: biochemical; details: 50 nM
T1 construct: saponin-isolated parasites were lysed by suspension in ice-cold water; endogenous in cells; host or cells: membrane preparation of saponin-isolated mature trophozoite-stage P. falciparum 3D7 parasites
T1 sequence (A0A143ZZK9 whole entry): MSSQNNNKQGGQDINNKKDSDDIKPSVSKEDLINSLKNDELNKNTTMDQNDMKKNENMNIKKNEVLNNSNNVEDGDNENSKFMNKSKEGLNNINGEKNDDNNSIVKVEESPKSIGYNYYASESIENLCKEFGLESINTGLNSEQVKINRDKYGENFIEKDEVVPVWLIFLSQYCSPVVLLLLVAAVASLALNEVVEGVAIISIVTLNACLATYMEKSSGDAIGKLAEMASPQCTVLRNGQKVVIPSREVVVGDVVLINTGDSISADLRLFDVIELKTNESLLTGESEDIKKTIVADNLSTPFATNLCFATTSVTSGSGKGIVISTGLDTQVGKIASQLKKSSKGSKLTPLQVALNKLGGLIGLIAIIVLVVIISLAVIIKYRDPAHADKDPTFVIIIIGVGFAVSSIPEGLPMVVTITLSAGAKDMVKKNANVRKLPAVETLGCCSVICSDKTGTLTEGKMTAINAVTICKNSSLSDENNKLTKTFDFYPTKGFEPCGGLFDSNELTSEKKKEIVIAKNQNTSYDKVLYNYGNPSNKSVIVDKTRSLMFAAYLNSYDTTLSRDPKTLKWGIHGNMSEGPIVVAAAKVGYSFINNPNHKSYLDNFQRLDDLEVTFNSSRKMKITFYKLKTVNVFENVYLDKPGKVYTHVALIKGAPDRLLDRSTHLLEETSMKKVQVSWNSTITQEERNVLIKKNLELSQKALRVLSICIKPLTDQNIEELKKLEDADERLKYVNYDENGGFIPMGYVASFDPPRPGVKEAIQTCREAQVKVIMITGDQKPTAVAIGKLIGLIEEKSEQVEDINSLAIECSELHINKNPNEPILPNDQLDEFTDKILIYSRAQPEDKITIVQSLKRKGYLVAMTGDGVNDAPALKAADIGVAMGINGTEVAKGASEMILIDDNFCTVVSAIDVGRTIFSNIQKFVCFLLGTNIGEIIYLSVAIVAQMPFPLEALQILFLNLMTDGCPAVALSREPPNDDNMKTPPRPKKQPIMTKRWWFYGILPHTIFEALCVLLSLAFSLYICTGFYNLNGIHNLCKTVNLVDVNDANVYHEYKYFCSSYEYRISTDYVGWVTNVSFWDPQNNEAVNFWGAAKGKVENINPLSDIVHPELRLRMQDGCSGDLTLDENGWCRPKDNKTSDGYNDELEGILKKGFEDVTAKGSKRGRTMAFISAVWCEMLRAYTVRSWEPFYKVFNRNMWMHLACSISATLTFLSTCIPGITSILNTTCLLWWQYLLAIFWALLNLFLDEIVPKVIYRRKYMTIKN
Method: For the preparation of uninfected erythrocyte membranes, packed uninfected erythrocytes were lysed by incubation for 5 min in ice-cold PBS containing 0.1% (w/v) saponin together with 1/500 Protease Inhibitor Cocktail Set III (Calbiochem). The erythrocyte ghosts were pelleted by centrifugation (12,000 × g, 10 min) and washed three times in ice-cold water (12,000 × g, 10 min) immediately prior to their use in the ATPase assay. To prepare membranes from parasitised erythrocytes, saponin-isolated parasites were lysed by suspension in ice-cold water (containing 1/500 Protease Inhibitor Cocktail Set III) then washed three times in ice-cold water (12,000 × g, 10 min) before their immediate use in the ATPase assay. The ATPase activity of membrane preparations from uninfected erythrocytes and saponin-isolated parasites was estimated from the rate of hydrolysis of ATP and measured using the PiColorLock Gold Phosphate (Pi) Detection System (Innova Biosciences). Briefly, membrane preparations from 1–3 × 10^8 cells were suspended in reaction buffer (100 mM of either NaCl or choline chloride, 50 mM Tris-HCl, 20 mM KCl, and 2 mM MgCl2) at 37°C. The ATPase reaction was initiated by the addition of 0.25 mM Na2ATP. Note that it was necessary to use the Na^+ salt of ATP, rather than the K^+ and Mg^2+ salts, as the latter both contain residual Pi that saturated the Pi detection system. […]

[4] = system: P. falciparum NITD609-R^Dd2 clone #2 (mutant PfATP4); test: Parasite proliferation, [^3H]hypoxanthine incorporation, NITD609-R^Dd2 clone #2; type: cell-based; details: Plasmodium falciparum, mean ± SEM (n), read-out: IC50 for inhibition of parasite proliferation by NITD246
Method: Parasite growth assays were performed in 96-well plates over 48 hr (commencing at the ring stage) using a standard [^3H]hypoxanthine incorporation assay ([Desjardins et al., 1979]).
as §1

## C[C@H]1Cc2c([nH]c3cc(F)c(F)cc23)[C@@]2(N1)C(=O)Nc1ccc(Cl)cc12 [NITD246]
[1]; 50 nM, 3D7, standard saline
  Effect on resting [Na^+]i: immediate rapid increase in [Na^+]i
[1]; Plasmodium falciparum, concentration causing [Na^+]i to increase from resting value at half the maximal rate, from fitted curves, 3D7, standard saline, read-out: IC50 for disruption of Na^+ regulation
  IC50: 2.1 ± 0.8 nM
[1]; maximally effective concentration
  Rate of increase of [Na^+]i at maximally effective concentrations: 0.092 ± 0.007 mM/s
[2]; Na^+-containing medium pH 7.1, increase from 7.33 ± 0.03, n = 6, p = 0.009
  Cytosolic pH (pHi) after addition: 7.46 ± 0.02
[2]; solution containing choline^+ in place of Na^+
  Effect on pHi: no significant effect
[3]; 100 mM Na^+, n = 5, p = 0.020, read-out: ATPase activity, % of the control value
  remaining activity at 0.05 µM: 60%
[3]; low (0.5 mM) [Na^+] medium, p = 0.63
  Effect on ATPase activity: no significant change
[4]
  IC50: 0.89 ± 0.12 nM

Reference: paper PMC3574224, “Na^+ Regulation in the Malaria Parasite Plasmodiumfalciparum Involves the Cation ATPase PfATP4 and Is a Target of the Spiroindolone Antimalarials” (Cell Host & Microbe, 2013)
